# Results: patent US11459323B2, “Monocyclic β-lactam compound for treating bacterial infection” (MEDSHINE DISCOVERY INC., priority 2018, dated 2022)
# Marks after values point to notes of the source that are not given here.
# What was measured:
# [1] = system: K. pneumoniae ATCC BAA-205 (TEM-1/SHV-1/SHV-12); test: MIC by micro-liquid dilution method (CLSI); type: cell-based, Klebsiella pneumonia; settings: Klebsiella pneumoniae, ATCCBAA205; K. pneumoniae ATCCBAA-205; read-out: MIC
# [2] = system: K. pneumoniae ATCC BAA-1705 (KPC-2); test: MIC by micro-liquid dilution method (CLSI); type: cell-based, Klebsiella pneumonia; settings: Klebsiella pneumoniae, ATCCBAA1705; K. pneumoniae ATCCBAA-1705; read-out: MIC
# [3] = system: K. pneumoniae ATCC BAA-2470 (NDM-1); test: MIC by micro-liquid dilution method (CLSI); type: cell-based, Klebsiella pneumonia; settings: Klebsiella pneumoniae, ATCCBAA2470; K. pneumoniae ATCCBAA-2470; read-out: MIC
# [4] = system: E. coli ATCC BAA-2523 (OXA-48); test: MIC by micro-liquid dilution method (CLSI); type: cell-based; settings: Escherichia coli, ATCCBAA2523; E. coli ATCCBAA-2523; read-out: MIC
# Source text: (§1) Three strains of Klebsiella pneumonia, K. pneumoniae ATCC BAA-205 (TEM-1/SHV-1/SHV-12), K. pneumoniae ATCC BAA-1705 (KPC-2), K. pneumoniae ATCC BAA-2470 (NDM-1); three strains of Pseudomonas aeruginosa, P. aeruginosa NCTC13437 (VIM-10; VEB-1), P. aeruginosa PA 14 and P. aeruginosa ATCC 35151; four strains of Escherichia coli, E. coli NCTC 13476 (IMP-1 type), E. coli ATCC BAA-2523 (OXA-48), E. coli MG1655Δtol C, E. coli ATCC 25922; one strain of Acinetobacter baumannii, A. baumannii ATCC 17978 and one strain of Staphylococcus aureus, S. aureus NRS384 were used to determine the minimum inhibitory concentration (MIC) of the compounds by micro-liquid dilution method according to the Institute of Clinical and Laboratory Standard (CLSI) requirements.
# E. coli MG1655Δtol C = test: MIC by micro-liquid dilution method (CLSI); type: cell-based; settings: Escherichia coli
# Source text: as §1
# [5] = system: E. coli NCTC 13476 (IMP-1 type); test: MIC by micro-liquid dilution method (CLSI); type: cell-based; settings: Escherichia coli; E. coli NCTC13476; read-out: MIC
# Source text: as §1
# P. aeruginosa PA 14 = test: MIC by micro-liquid dilution method (CLSI); type: cell-based; settings: Pseudomonas aeruginosa, PA14; P. aeruginosa PA 14; read-out: MIC
# Source text: as §1
# P. aeruginosa ATCC 35151 = test: MIC by micro-liquid dilution method (CLSI); type: cell-based; settings: Pseudomonas aeruginosa; P. aeruginosa ATCC35151; read-out: MIC
# A. baumannii ATCC 17978 = test: MIC by micro-liquid dilution method (CLSI); type: cell-based; settings: Acinetobacter baumannii; A. baumannii ATCC17978; read-out: MIC
# E. coli ATCC 25922 = test: MIC by micro-liquid dilution method (CLSI); type: cell-based; settings: Escherichia coli; E. coli ATCC25922; read-out: MIC
# [6] = system: Acinetobacter baumannii ATCC 17978; test: MIC on Acinetobacter baumannii strains; type: cell-based; settings: ATCC17978
# Source text: (§2) Twelve strains of Acinetobacter baumannii, A. baumannii ATCC 17978 (ATCC-BAA-1605, ATCC-BAA-1789, ATCC-BAA-1790, ATCC-BAA-1791, ATCC-BAA-1792, ATCC-BAA-1793, ATCC-BAA-1794, ATCC-BAA-1795, ATCC-BAA-1799, ATCC-BAA-1800, ATCC 19606, ATCC 17978) were used to determine the minimum inhibitory concentration (MIC) of the compounds by micro-liquid dilution method according to the Institute of Clinical and Laboratory Standard (CLSI) requirements.
# [7] = system: Acinetobacter baumannii ATCC 19606; test: MIC on Acinetobacter baumannii strains; type: cell-based; settings: ATCC19606
# Source text: as §2
# [8] = system: Acinetobacter baumannii ATCC-BAA-1605; test: MIC on Acinetobacter baumannii strains; type: cell-based; settings: ATCCBAA1605, ATCC-BAA-1605, read-out: MIC
# Source text: as §2
# [9] = system: Acinetobacter baumannii ATCC-BAA-1789; test: MIC on Acinetobacter baumannii strains; type: cell-based; settings: ATCCBAA1789
# Source text: as §2
# [10] = system: Acinetobacter baumannii ATCC-BAA-1790; test: MIC on Acinetobacter baumannii strains; type: cell-based; settings: ATCCBAA1790, ATCC-BAA-1790, read-out: MIC
# Source text: as §2
# [11] = system: Acinetobacter baumannii ATCC-BAA-1791; test: MIC on Acinetobacter baumannii strains; type: cell-based; settings: ATCCBAA1791
# Source text: as §2
# [12] = system: Acinetobacter baumannii ATCC-BAA-1792; test: MIC on Acinetobacter baumannii strains; type: cell-based; settings: ATCCBAA1792, ATCC-BAA-1792, read-out: MIC
# Source text: as §2
# [13] = system: Acinetobacter baumannii ATCC-BAA-1793; test: MIC on Acinetobacter baumannii strains; type: cell-based; settings: ATCCBAA1793, ATCC-BAA-1793, read-out: MIC
# Source text: as §2
# [14] = system: Acinetobacter baumannii ATCC-BAA-1794; test: MIC on Acinetobacter baumannii strains; type: cell-based; settings: ATCCBAA1794, ATCC-BAA-1794, read-out: MIC
# Source text: as §2
# [15] = system: Acinetobacter baumannii ATCC-BAA-1795; test: MIC on Acinetobacter baumannii strains; type: cell-based; settings: ATCCBAA1795
# Source text: as §2
# [16] = system: Acinetobacter baumannii ATCC-BAA-1799; test: MIC on Acinetobacter baumannii strains; type: cell-based; settings: ATCCBAA1799, ATCC-BAA-1799, read-out: MIC
# Source text: as §2
# [17] = system: Acinetobacter baumannii ATCC-BAA-1800; test: MIC on Acinetobacter baumannii strains; type: cell-based; settings: ATCCBAA1800, ATCC-BAA-1800, read-out: MIC
# Source text: as §2
# [18] = system: Pseudomonas aeruginosa PA14; test: Lungs of immunosuppressed mice infected with Pseudomonas aeruginosa (1), lung bacterial load; type: in vivo; settings: 24 hours after infection, day, ip at 2 h, 4 h, 6 h, 8 h
# Method: Pseudomonas aeruginosa PA14. 64 mice were intraperitoneally injected with 150 mg/kg cyclophosphamide on the first day and the fourth day to give immunosuppressed mice. […] [table] The mice were injected with 50 μL of bacterial solution (2×10^3 CFU) through the airway. 2 hours after the infection, 4 mice in the model group was sacrificed by removing cervical vertebra. Two hours after infection, the drugs were administered by groups, and the mice were administered intraperitoneally once at 2 hours, 4 hours, 6 hours, and 8 hours, a total of 4 times. Mice of each group were sacrificed by removing cervical vertebra 24 hours after infection, lung and kidney tissues were taken aseptically and put into sterilized tissue homogenate tubes, weighed, and an appropriate amount of normal saline (NS) was added, the mixture was homogenized by a homogenizer for 1 min, the lung tissues of the model group were diluted 10^4, 10^5, 10^6 times, the lung tissues of each administration group were diluted 10, 100 times, the kidney tissues of the model group were diluted 10^2, […], 10^4 times, and the lung tissues of each administration group were diluted 10 times, the obtained mixtures were coated on TSA plates using spiral coater, then incubated at 37° C. overnight, and the CFU was counted with a colony counter. Graphpad Prism mapping software was used to make scatter plots of lung tissue CFU. SPSS19.0 software was used to count CFU and average body weight, and analysis of variance was used to analyze differences between groups.
# [19] = system: Pseudomonas aeruginosa PA14; test: Lungs of immunosuppressed mice infected with Pseudomonas aeruginosa (2), lung bacterial load; type: in vivo; settings: 24 hours after infection, total dosage 60 mg/kg, day, ip at 2 h, 4 h, 6 h, 8 h
# Method: Pseudomonas aeruginosa PA14. 60 mice were intraperitoneally injected with 150 mg/kg cyclophosphamide on day 1 and day 4 to give immunosuppressed mice. […] [table] The mice were injected with 50 μL of bacterial solution (2×10^3 CFU) through the airway. 2 hours after the infection, 4 mice in the model group was sacrificed by removing cervical vertebra. Two hours after infection, the drugs were administered by groups, and the mice were administered intraperitoneally once at 2 hours, 4 hours, 6 hours, and 8 hours, a total of 4 times. Mice of each group were sacrificed by removing cervical vertebra 24 hours after infection, lung and kidney tissues were taken aseptically and put into a sterilized tissue homogenate tube, weighed, and an appropriate amount of normal saline (NS) was added, the mixture was homogenized by a homogenizer for 1 min, the lung tissues of the model group were diluted 10^4, 10^5, 10^6 times, the lung tissues of each administration group were diluted 10, 100 times, the kidney tissues of the model group were diluted 10^2, 10^3, 10^4 times, and the lung tissues of each administration group were diluted 10 times, the obtained mixtures were coated on TSA plates using spiral coater, then incubated at 37° C. overnight, and the CFU was counted with a colony counter. Graphpad Prism mapping software was used to make scatter plots of lung tissue CFU. SPSS19.0 software was used to count CFU and average body weight, and analysis of variance was used to analyze differences between groups.
Structure (SMILES),MIC [6] [µg/mL],MIC [7] [µg/mL],MIC [8] [µg/mL],MIC [9] [µg/mL],MIC [10] [µg/mL],MIC [11] [µg/mL],MIC [12] [µg/mL],MIC [13] [µg/mL],MIC [14] [µg/mL],MIC [15] [µg/mL],MIC [16] [µg/mL],MIC [17] [µg/mL],also measured
CC1(C)[C@H](NC(=O)/C(=N\OCCOc2ccc3c(c2)CCN(CCCN)C3)c2csc(N)n2)C(=O)N1OS(=O)(=O)O [Compound 6],2,8,16,8,8,4,8,8,8,8,8,8,MIC [1]: 16 µg/mL; MIC [2]: 4 µg/mL; MIC [3]: 4 µg/mL; MIC [4]: 0.25 µg/mL; MIC (E. coli MG1655Δtol C): ≤ 0.125 µg/mL; MIC [5]: 1 µg/mL; MIC (P. aeruginosa PA 14): 16 µg/mL; MIC (P. aeruginosa ATCC 35151): 0.5 µg/mL; MIC (A. baumannii ATCC 17978): 4 µg/mL; MIC (E. coli ATCC 25922): 0.5 µg/mL
CC1(C)[C@H](NC(=O)/C(=N\OCCOc2ccc3c(c2)CC[N+](C)(CCCN)C3)c2csc(N)n2)C(=O)N1OS(=O)(=O)[O-] (stereo partly shown) [Compound 5],1,16,16,8,8,2,16,16,16,16,16,16,–
"CC1(C)[C@H](NC(=O)/C(=N\O[C@@H](COc2ccc(C(=N)N[C@@H]3CCCNC3)cc2)C(=O)O)c2csc(N)n2)C(=O)N1OS(=O)(=O)O [I-g, reference compound]",–,–,–,–,–,–,–,–,–,–,–,–,LOG10-of bacterial load ([18]; total dosage 120 mg/kg): 1.58 ± 2.45; LOG10-of bacterial load ([18]; total dosage 200 mg/kg): 0**; LOG10-of bacterial load [19]: 1.65 ± 1.39
